Test results published in ChEMBL document CHEMBL1909046, “DrugMatrix in vitro pharmacology data”.

Tests used:
Androgen receptor = molecular target: T1, Androgen receptor (Rattus norvegicus, UniProt P15207)
T1 sequence (P15207 whole entry): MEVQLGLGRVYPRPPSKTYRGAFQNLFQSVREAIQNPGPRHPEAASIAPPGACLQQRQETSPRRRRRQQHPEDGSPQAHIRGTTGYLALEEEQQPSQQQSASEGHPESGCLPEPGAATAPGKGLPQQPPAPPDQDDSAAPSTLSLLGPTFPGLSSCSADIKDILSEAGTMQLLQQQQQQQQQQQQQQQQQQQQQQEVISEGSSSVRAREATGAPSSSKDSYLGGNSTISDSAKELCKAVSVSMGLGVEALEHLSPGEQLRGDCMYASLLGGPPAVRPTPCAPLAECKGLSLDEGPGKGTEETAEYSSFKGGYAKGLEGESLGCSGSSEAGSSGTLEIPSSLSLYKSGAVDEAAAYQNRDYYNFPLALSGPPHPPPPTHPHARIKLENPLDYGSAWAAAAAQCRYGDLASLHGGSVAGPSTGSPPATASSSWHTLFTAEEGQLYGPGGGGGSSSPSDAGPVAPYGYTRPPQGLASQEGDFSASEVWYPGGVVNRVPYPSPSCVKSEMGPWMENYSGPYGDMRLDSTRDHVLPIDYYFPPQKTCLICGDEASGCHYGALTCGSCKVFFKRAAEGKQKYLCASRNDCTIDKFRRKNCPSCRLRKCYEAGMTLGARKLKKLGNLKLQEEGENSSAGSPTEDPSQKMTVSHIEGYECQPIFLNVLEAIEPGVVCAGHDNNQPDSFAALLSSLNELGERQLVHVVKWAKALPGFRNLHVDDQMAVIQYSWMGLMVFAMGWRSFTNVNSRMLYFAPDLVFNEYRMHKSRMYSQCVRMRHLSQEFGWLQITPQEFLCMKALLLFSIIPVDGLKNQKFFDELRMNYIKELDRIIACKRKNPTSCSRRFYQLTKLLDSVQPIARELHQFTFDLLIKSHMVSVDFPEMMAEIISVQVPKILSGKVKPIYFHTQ

Cytochrome P450 2C19 = Cytochrome P450 2C19 (Homo sapiens, UniProt P33261)
Estrogen receptor = molecular target: T2, Estrogen receptor (Homo sapiens, UniProt P03372); assay: biochemical
T2 sequence (P03372 whole entry): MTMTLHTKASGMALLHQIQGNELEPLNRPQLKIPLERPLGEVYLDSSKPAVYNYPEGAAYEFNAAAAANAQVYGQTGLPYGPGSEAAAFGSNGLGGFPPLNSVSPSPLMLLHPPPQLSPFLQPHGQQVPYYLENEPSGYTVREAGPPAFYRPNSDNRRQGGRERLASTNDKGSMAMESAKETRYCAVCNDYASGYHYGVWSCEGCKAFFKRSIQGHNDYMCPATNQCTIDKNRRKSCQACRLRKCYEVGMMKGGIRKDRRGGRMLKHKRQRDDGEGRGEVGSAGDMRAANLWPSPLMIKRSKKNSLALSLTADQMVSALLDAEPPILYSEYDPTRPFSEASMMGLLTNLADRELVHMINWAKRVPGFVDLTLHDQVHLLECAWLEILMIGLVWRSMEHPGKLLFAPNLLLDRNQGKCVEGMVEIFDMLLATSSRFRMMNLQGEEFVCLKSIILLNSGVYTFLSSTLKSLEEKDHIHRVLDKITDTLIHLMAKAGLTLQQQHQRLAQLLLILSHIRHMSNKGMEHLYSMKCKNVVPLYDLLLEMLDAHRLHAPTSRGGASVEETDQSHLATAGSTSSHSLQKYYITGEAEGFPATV

Cytochrome P450 2C9 = Cytochrome P450 2C9 (Homo sapiens, UniProt P11712)
Cytochrome P450 1A2 = molecular target: T3, Cytochrome P450 1A2 (Homo sapiens, UniProt P05177)
T3 sequence (P05177 whole entry): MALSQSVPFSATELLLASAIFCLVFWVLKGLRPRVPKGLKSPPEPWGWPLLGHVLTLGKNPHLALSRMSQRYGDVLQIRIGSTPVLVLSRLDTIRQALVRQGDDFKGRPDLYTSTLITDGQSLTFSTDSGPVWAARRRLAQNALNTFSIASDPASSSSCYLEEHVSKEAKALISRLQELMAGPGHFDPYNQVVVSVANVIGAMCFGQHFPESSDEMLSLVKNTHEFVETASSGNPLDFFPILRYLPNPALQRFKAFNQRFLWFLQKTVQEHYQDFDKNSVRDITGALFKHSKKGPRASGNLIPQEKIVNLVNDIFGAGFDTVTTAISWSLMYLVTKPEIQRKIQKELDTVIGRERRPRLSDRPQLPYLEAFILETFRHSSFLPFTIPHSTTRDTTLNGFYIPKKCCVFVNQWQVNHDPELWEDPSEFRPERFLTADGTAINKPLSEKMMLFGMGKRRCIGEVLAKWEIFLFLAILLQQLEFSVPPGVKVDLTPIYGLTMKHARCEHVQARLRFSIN

Glucocorticoid receptor = molecular target: T4, Glucocorticoid receptor (Homo sapiens, UniProt P04150); assay: biochemical
T4 sequence (P04150 whole entry): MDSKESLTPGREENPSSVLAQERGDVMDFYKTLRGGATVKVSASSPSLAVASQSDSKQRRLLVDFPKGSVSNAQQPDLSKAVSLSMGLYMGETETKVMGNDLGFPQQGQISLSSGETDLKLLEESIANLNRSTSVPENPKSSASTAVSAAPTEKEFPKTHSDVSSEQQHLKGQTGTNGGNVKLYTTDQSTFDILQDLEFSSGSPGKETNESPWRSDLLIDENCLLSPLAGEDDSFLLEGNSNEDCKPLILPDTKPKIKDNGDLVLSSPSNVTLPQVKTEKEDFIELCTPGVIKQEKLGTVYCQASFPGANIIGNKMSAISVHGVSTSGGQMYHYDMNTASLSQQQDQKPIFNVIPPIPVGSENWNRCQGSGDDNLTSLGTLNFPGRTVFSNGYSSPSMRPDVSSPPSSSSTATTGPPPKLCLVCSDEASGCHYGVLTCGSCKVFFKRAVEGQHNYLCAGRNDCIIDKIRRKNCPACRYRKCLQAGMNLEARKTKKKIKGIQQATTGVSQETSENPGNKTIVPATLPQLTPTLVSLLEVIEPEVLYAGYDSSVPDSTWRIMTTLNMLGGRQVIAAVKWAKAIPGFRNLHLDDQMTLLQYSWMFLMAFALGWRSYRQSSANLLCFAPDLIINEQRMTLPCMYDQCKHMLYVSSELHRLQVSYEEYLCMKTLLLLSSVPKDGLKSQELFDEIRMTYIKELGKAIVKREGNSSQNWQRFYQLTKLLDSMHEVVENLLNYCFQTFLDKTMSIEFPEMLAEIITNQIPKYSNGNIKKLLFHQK
Note: in other assays of this panel Not Active means under 50% inhibition at 10 µM.

Chain of Cytochrome P450 2C19 (P33261 whole entry): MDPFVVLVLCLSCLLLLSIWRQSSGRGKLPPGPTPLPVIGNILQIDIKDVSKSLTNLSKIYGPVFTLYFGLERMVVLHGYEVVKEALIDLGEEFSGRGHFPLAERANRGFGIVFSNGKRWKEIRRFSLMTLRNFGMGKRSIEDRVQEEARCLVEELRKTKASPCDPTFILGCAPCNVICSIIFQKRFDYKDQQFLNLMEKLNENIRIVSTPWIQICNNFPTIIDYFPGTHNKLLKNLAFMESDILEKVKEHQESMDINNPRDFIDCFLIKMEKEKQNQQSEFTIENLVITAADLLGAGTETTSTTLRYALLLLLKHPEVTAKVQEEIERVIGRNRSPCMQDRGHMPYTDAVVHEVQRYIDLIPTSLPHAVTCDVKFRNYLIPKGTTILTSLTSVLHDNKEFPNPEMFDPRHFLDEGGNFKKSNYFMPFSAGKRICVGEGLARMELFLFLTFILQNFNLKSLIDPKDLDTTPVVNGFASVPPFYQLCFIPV
Chain of Cytochrome P450 2C9 (P11712 whole entry): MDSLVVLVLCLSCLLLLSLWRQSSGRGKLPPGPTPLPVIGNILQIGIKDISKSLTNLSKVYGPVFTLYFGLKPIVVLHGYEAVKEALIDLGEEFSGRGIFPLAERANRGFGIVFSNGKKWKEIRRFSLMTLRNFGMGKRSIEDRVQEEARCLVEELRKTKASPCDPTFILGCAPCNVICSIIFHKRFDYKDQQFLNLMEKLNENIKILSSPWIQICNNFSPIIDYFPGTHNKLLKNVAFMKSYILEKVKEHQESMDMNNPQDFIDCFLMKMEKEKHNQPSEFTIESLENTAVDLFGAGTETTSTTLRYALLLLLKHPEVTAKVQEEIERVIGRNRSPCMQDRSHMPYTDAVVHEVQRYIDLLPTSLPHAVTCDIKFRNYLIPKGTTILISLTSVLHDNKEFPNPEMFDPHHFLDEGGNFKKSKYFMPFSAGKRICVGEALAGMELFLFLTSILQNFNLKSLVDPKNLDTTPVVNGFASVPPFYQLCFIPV

Compound	IC50 (Androgen receptor)	further results
Nn1nnc2ccccc21	Not Active	
CC[C@]1(O)CC[C@H]2[C@@H]3CCC4=CCCC[C@@H]4[C@H]3CC[C@@]21C		IC50 (Cytochrome P450 2C19): 1290 nM; IC50 (Estrogen receptor): 1120 nM; Ki (Estrogen receptor): 320 nM
O=C(c1ccccc1Cl)N1CCC(Cc2ccccc2)CC1	Not Active	IC50 (Cytochrome P450 2C19): 200 nM; IC50 (Cytochrome P450 2C9): 2000 nM
Clc1cc2c(cc1Cl)Oc1cc(Cl)c(Cl)cc1O2 [2,3,7,8-TETRACHLORODIBENZO-P-DIOXIN]	Not Active	
CCCCCC[C@H]1C(=O)O[C@H](C)[C@H](NC(=O)c2cccc(NC=O)c2O)C(=O)O[C@@H](C)[C@@H]1OC(=O)CC(C)C [ANTIMYCIN A]	Not Active	
C[C@@H]1CC[C@H]2[C@@H](C)C(=O)O[C@@H]3O[C@@]4(C)CC[C@@H]1[C@]32OO4 [ARTEMISININ]	Not Active	
CC(C)(C)c1ccc(S(=O)(=O)/C=C/C#N)cc1 [BAY-11-7085]	Not Active	
CCc1oc2ccccc2c1C(=O)c1cc(Br)c(O)c(Br)c1 [BENZBROMARONE]	Not Active	
O=c1cc(-c2ccccc2)oc2ccc3ccccc3c12 [BETA-NAPHTHOFLAVONE]	Not Active	
O=C(/C=C/c1ccc(O)c(O)c1)OCCc1ccccc1 [CAFFEIC ACID PHENETHYL ESTER]	Not Active	IC50 (Estrogen receptor): 7910 nM; Ki (Estrogen receptor): 2260 nM
COc1cc(CNC(=O)CCCC/C=C/C(C)C)ccc1O [CAPSAICIN]		IC50 (Cytochrome P450 1A2): 3000 nM
CC(C)(Oc1ccc(C2CC2(Cl)Cl)cc1)C(=O)O (configuration not stated) [CIPROFIBRATE]	Not Active	
C#C[C@]1(O)CC[C@H]2[C@@H]3CCC4=Cc5oncc5C[C@]4(C)[C@H]3CC[C@@]21C [DANAZOL]		IC50 (Estrogen receptor): 17800 nM; Ki (Estrogen receptor): 5080 nM; IC50 (Glucocorticoid receptor): 4310 nM; Ki (Glucocorticoid receptor): 1960 nM
C#C[C@]1(O)CC[C@H]2[C@@H]3CCc4cc(O)ccc4[C@H]3CC[C@@]21C [ETHINYL ESTRADIOL]		IC50 (Glucocorticoid receptor): 1710 nM; Ki (Glucocorticoid receptor): 777 nM
OCCO [ETHYLENE GLYCOL]	Not Active	
CC(=O)OCC(CCn1cnc2cnc(N)nc21)COC(C)=O [FAMCICLOVIR]	Not Active	

Compound	IC50 (Androgen receptor)	further results
O=C(O)Cc1ccc(-c2ccccc2)cc1 [FELBINAC]	Not Active	
Cc1cn[nH]c1 [FOMEPIZOLE]	Not Active	
C[C@H]([C@](O)(Cn1cncn1)c1ccc(F)cc1F)S(C)(=O)=O [GENACONAZOLE]	Not Active	
COc1ccccc1OCC(O)CO (configuration not stated) [GUAIFENESIN]	Not Active	
N=C(N)N/N=C/c1c(Cl)cccc1Cl [GUANABENZ]	Not Active	
C[C@]12CCC(=O)C=C1CC[C@@H]1[C@@H]2[C@@H](O)C[C@@]2(C)[C@H]1CC[C@]2(O)C(=O)CO [HYDROCORTISONE]	Not Active	
CC(=O)O[C@]1(C(C)=O)CC[C@H]2[C@@H]3C=C(C)C4=CC(=O)CC[C@]4(C)[C@H]3CC[C@@]21C [MEGESTROL ACETATE]		IC50 (Cytochrome P450 2C9): 10000 nM; IC50 (Glucocorticoid receptor): 19 nM; Ki (Glucocorticoid receptor): 8.77 nM
CN(Cc1cnc2nc(N)nc(N)c2n1)c1ccc(C(=O)N[C@@H](CCC(=O)O)C(=O)O)cc1 [METHOTREXATE]	Not Active	
COc1ccc2cc(CCC(C)=O)ccc2c1 [NABUMETONE]		IC50 (Cytochrome P450 1A2): 5000 nM
CNC(=C[N+](=O)[O-])NCCSCc1csc(CN(C)C)n1 [NIZATIDINE]	Not Active	
COc1ccc(Cc2nccc3cc(OC)c(OC)cc23)cc1OC [PAPAVERINE]	Not Active	IC50 (Cytochrome P450 2C19): 762 nM
Cc1cccc(Nc2cc(Cl)nc(SCC(=O)O)n2)c1C [PIRINIXIC ACID]	Not Active	
COBALT(II) ACETYLACETONATE	Not Active	Ki (Androgen receptor): Not Active
INSULIN HUMAN	Not Active	Ki (Androgen receptor): Not Active
POLYVINYL ALCOHOL	Not Active	Ki (Androgen receptor): Not Active
